One assay deals with Guinea Pig Platelets. Description: In vitro inhibition of collagen-induced platelet aggregation, guinea pig platelet-rich plasma. Format: cell-based. The following applies: guinea pig PRP, collagen 1 μg/ml, 3 minutes of contact at 37° C. The method, then: (§1) A study of the inhibitory activity of the compounds of formula I on platelet aggregation was carried out in vitro, i.e. by direct contact of solutions of variable concentrations of the compounds with platelets freshly separated from a sample of whole blood, taken under standardized conditions, from laboratory animals (guinea pigs) and from healthy human subjects who have not received any substances or drugs that might interfere with blood clotting. The anti-platelet-aggregating activity was also studied ex vivo/vitro, i.e. after administration of the substances claimed in guinea pigs to measure the intensity and duration of the anti-aggregating action induced by the fraction of the test product absorbed and circulating in the blood.
1.1. Studies on Guinea Pig Platelets
Blood is taken by intracardiac puncture from male Dunkin-Hartley guinea pigs (weighing about 330 g), at a rate of 4.5 ml per 0.5 ml of trisodium citrate (concentration of the aqueous solution: 1.55%) in order to prevent all trace of clotting. The platelet-rich plasma (PRP) is obtained by centrifuging the tubes of whole blood for 15 minutes at 150 g.
The PRPs are collected as. “pools”. The platelets contained in these pools are counted using a Coulter ZM haematology automatic device: if necessary, a dilution is carried out in order for the platelet concentration in the plasma to be between 200,000 and 400,000 platelets/mm^3. Simultaneously, other samples of these pools serve to prepare the platelet-poor plasma (PPP) by centrifugation at 1,500 g for 15 minutes.
The kinetic study of the platelet aggregation is carried out by adding a collagen solution (1 μg/ml) to a volume of PRP, using a Chrono-log Corporation aggregometer (490-D1 or 560 VS) which uses an optical detection of the appearance of the thrombus.
The measurements of the aggregation inhibition are carried out after 3 minutes of contact at 37° C. with agitation.

Another assay deals with Human Platelets. Description: In vitro inhibition of collagen-induced platelet aggregation, human platelet-rich plasma. The following applies: human PRP, collagen 5 μg/ml, 3 minutes of contact at 37° C., read-out: IC50 (M) in vitro Man. Format: cell-based. As to the method: A study of the inhibitory activity of the compounds of formula I on platelet aggregation was carried out in vitro, i.e. by direct contact of solutions of variable concentrations of the compounds with platelets freshly separated from a sample of whole blood, taken under standardized conditions, from laboratory animals (guinea pigs) and from healthy human subjects who have not received any substances or drugs that might interfere with blood clotting. The anti-platelet-aggregating activity was also studied ex vivo/vitro, i.e. after administration of the substances claimed in guinea pigs to measure the intensity and duration of the anti-aggregating action induced by the fraction of the test product absorbed and circulating in the blood. 1.2 Study on Human Platelets Venous blood is taken from a group of ten healthy human subjects of the same age, by puncture into a vein of the fold of the elbow and is collected in a glass tube containing aqueous 0.129 M sodium citrate solution (1 volume of citrate solution per 9 volumes of blood). Each tube is then centrifuged a first time at 20° C. and 100 g for 15 minutes in order to obtain the platelet-rich plasma (PRP); after removing this PRP, the tube is again centrifuged at 2,000 g for 15 minutes in order this time to remove the platelet-poor plasma (PPP). For each identified sample of PRP, the platelets are counted using a Coulter ZM counter. […] A control test intended to check the possible effect of the solvents (reference value) on the platelet aggregation is introduced into each measurement series, and is measured after 3 minutes of contact at 37° C. with agitation.

Assay [1] deals with platelet aggregation induced by collagen. The experiment in a line: Ex vivo/vitro anti-platelet-aggregating activity in guinea pigs after gastric administration. To be noted: for % of g.r. inhibition guinea pig ex vivo d = 150 mg/kg −1 h: administered 1 h before blood is taken; for % of g.r. inhibition guinea pig ex vivo d = 150 mg/kg −2 h: administered 2 h before blood is taken. Also on record: species or system guinea pig. The method, then: as §1
2. ex vivo/vitro Pharmacological Study in Guinea Pigs
Evaluation of the anti-platelet-aggregating activity of the compounds is carried out in the same guinea pigs as those mentioned above (Dunkin-Hartley strain). The administration of each product in a range of doses from 150 mg/kg to 10 mg/kg and of each vehicle (5 ml/kg) is carried out via the gastric route (g.r.) 1h or 2h or 4h or 6h or 8h or 12h before blood is taken from the guinea pigs fasted the day before. The allocation of the treatments to the animals is random.
The blood is taken and then treated under the same conditions as those described above for the in vitro studies.
The results of the inhibition of the platelet aggregation obtained for each test concentration make it possible to calculate the IC50 concentration of each test product and the kinetics of the inhibitory effect and its duration of action.

The mark [2] stands for this setting: Cavia porcellus, Platelet, 0.05 h.

These results are taken from patent US6344456B1, “Piperazinone derivatives and their uses” (Laboratoire L. Lafon, priority 1998, dated 2002).

Where two headings read alike, the source gives them in different places.

A word on the IC50: it is the midpoint of a concentration-inhibition curve. In the assay on Guinea Pig Platelets (setting [2]), `Cl.N=C(N)c1ccc(N2CCN(CC(=O)NC(CC(=O)O)c3ccc4c(c3)OCO4)C(=O)C2)cc1` (stereo not drawn) [Example 19, 3-{[2-(4-{4-[amino(imino)methyl]phenyl}-2-oxopiperazino)acetyl]amino}-3-(1,3-benzodioxol-5-yl)propanoic acid hydrochloride] had an IC50 of 150 nM. In the assay with Human Platelets (Platelet, 0.05 h), the IC50 was found to be 3.4e-07 M. In addition, the “anti-aggregating action ex-vivo in guinea pigs, oral dose 10 mg/kg, 1h” value in assay [1] (10 mg/kg, administered 1h before the aggregation test) was 57%. Besides, the “anti-aggregating action ex-vivo in guinea pigs, oral dose 10 mg/kg, 2h” value in assay [1] (10 mg/kg, administered 2h before the aggregation test) was determined as 24%. Also, in assay [1], the “% of g.r. inhibition guinea pig ex vivo d = 150 mg/kg −1 h” value is −69% and the “% of g.r. inhibition guinea pig ex vivo d = 150 mg/kg −2 h” value was −78%.
Turning to `Cl.N=C(N)c1ccc(N2CCN(CC(=O)NCCC(=O)O)CC2=O)cc1` [Example 28, 3-{[2-(4-{4-[amino(imino)methyl]phenyl}-3-oxopiperazino)acetyl]amino}propanoic acid hydrochloride], in the assay on Guinea Pig Platelets (setting [2]), the IC50 is 16000 nM. Further, in the assay with Human Platelets (Platelet, 0.05 h), the IC50 was found to be 1.4e-06 M. For the same compound, in assay [1], the “% of g.r. inhibition guinea pig ex vivo d = 150 mg/kg −1 h” value is −28% and the “% of g.r. inhibition guinea pig ex vivo d = 150 mg/kg −2 h” value is −23%.
The matching figures for `Cl.N=C(N)c1ccc(N2CCN(CC(=O)NC(CC(=O)O)c3ccc4c(c3)OCO4)CC2=O)cc1` (stereo not drawn) [Example 30, 3-{[2-(4-{4-[amino(imino)methyl]phenyl}-3-oxopiperazino)acetyl]amino}-3-(1,3-benzodioxol-5-yl)propanoic acid hydrochloride]: 15000 nM, 1.2e-06 M, −14% and −17%.
For “Ethyl 3-{[2-(4-{4-[amino(imino)methyl]phenyl}-2-oxopiperazino)-acetyl]amino}-3-(pyridyl)propanoate acetate [Example 20]”, the IC50 in the assay on Guinea Pig Platelets is 630 nM; with Human Platelets, 2.8e-05 M. In addition, the “% of g.r. inhibition guinea pig ex vivo d = 150 mg/kg −1 h” value in assay [1] is given as −65%. Besides, in assay [1], the “% of g.r. inhibition guinea pig ex vivo d = 150 mg/kg −2 h” value is reported as −64%.
